The IC50 is the midpoint of a concentration-inhibition curve. In general, melting point refers to the temperature of the solid-liquid transition.

This is an account of results in patent US7838023B2, “Furoxan compounds, compositions and methods of use” (NitroMed, Inc., priority 2005, dated 2010).

Where a name gives a salt, the structure may show the parent alone. Read-outs that look alike come from different tables or passages of the source.

In series [1] the test system is Human coronary artery endothelial cells (EC). Nature of the series: Endothelial cell (EC) antiproliferation assay. Type of series: cell-based. The following applies: inhibition of proliferation, viable cell count ~68 hours after addition. Here is the method:
(§1) Human coronary artery smooth muscle cells (SMC) and endothelial cells (EC) were supplied by Cambrex Bio Science Walkersville, Inc. (Walkersville, MD). The smooth muscle cells were maintained in a basal medium, EBM (Cambrex Bio Science Walkersville, Inc), without phenol red and supplemented with 5% (v/v) fetal bovine serum (FBS), human recombinant epidermal growth factor (EGF), human recombinant fibroblast growth factor (FGF), bovine insulin, 50 μg/mL gentamicin sulfate, and 50 ng/mL amphotericin B (all obtained from Cambrex Bio Science Walkersville, Inc. as SMGM2 SingleQuots). The endothelial cells were grown in a modified EGM2-MV medium (Cambrex Bio Science Walkersville, Inc.), which had the same, phenol red-free, basal medium, EBM, as used in the smooth muscle cell medium, but were supplemented with 5% (v/v) fetal bovine serum (FBS), human recombinant epidermal growth factor (EGF), human recombinant fibroblast growth factor (FGF), vascular endothelial growth factor (VEGF), recombinant insulin-like growth factor-1 (IGF-1), ascorbic acid, 50 μg/mL gentamicin sulfate, and 50 ng/mL amphotericin B (all supplied by Cambrex Bio Science Walkersville, Inc. as EGM2-MV SingleQuots). All cells were incubated under humidified 95% air-5% CO2 at 37° C.
(§2) For the SMC/EC Antiproliferation Assay, the cells were seeded at 4×10^4 viable cells in 2 mL of the appropriate medium per well of a Corning tissue culture 24 well plate (Corning, N.Y.). Stock solutions of the test compounds were prepared just prior to addition to the cells by dissolving in DMSO at a concentration 1000 times the highest concentration to be assayed. This stock solution was diluted, as required, with DMSO to the required concentration. On the same day the cells were seeded, but after they had attached and spread out (about 3 hr), each test compound in varying concentrations (2 μL of the diluted stock solutions) was added to four replicate wells (n=4) for each concentration. Control cultures received 2 μL of DMSO per well (n=4). On the following morning, the cultures were examined microscopically and their condition, including evidence of cytotoxicity, recorded. ˜68 hours after the addition of the test compound, the cultures were examined microscopically and the viable cells counted with a hemacytometer following trypsinization with 0.25% trypsin-1 mM EDTA. Trypan Blue dye exclusion was used to discriminate between viable and dead cells. The results are presented as % of the control viable cell count (mean±SEM) and are used to determine the IC50 for the inhibition of proliferation of vascular smooth muscle and endothelial cells.

Series [2] concerns Human coronary artery smooth muscle cells (SMC). Nature of the series: Vascular smooth muscle cell (SMC) antiproliferation assay. Type of series: cell-based. The following applies: inhibition of proliferation, viable cell count ~68 hours after addition. Here is the method: as §1, §2
Where [3] appears, read: Homo sapiens, Endothelial cell, EC strain 3033, read-out: EC Strain 3033, IC50.
Where [4] appears, read: Homo sapiens, SMC strain 3033, read-out: SMC Strain 3033, IC50.

Consider `O=S(=O)(c1ccccc1)c1c(OCCN(CCOc2no[n+]([O-])c2S(=O)(=O)c2ccccc2)CCOc2no[n+]([O-])c2S(=O)(=O)c2ccccc2)no[n+]1[O-]` [Example 1d, Ethanamine, 2-[[5-oxido-4-(phenylsulfonyl)-1,2,5-oxadiazol-3-yl]oxy]-N,N-bis[2-[[5-oxido-4-(phenylsulfonyl)-1,2,5-oxadiazol-3-yl]oxy]ethyl]-, 2-hydroxy-1,2,3-propanetricarboxylate], for which the IC50 turned out to be 447 nM in series [1] (setting [3]); 460 nM in series [1] (Homo sapiens, Endothelial cell, EC strain 5675-1, read-out: EC Strain 5675-1, IC50); 6 nM in series [2] (setting [4]); 17 nM in series [2] (Homo sapiens, SMC strain 5286, read-out: SMC Strain 5286, IC50); 8 nM in series [2] (Homo sapiens, SMC strain 9557-1, read-out: SMC Strain 9557-1, IC50).

For `O=S(=O)(c1ccccc1)c1c(OCCNCCOc2no[n+]([O-])c2S(=O)(=O)c2ccccc2)no[n+]1[O-]` [Example 2b, Ethanamine, 2-[[5-oxido-4-(phenylsulfonyl)-1,2,5-oxadiazol-3-yl]oxy]-N-[2-[[5-oxido-4-(phenylsulfonyl)-1,2,5-oxadiazol-3-yl]oxy]ethyl]-, 2-hydroxy-1,2,3-propanetricarboxylate (1:1) (salt)], the IC50 came out at 690 nM in series [1] (setting [3]) and 71 nM in series [2] (setting [4]).

Regarding `O=S(=O)(c1ccccc1)c1c(OCC(COc2no[n+]([O-])c2S(=O)(=O)c2ccccc2)Oc2no[n+]([O-])c2S(=O)(=O)c2ccccc2)no[n+]1[O-]` [Example 4], the IC50 in series [1] (EC strain 3033, read-out: EC Strain 3033, IC50) came to 346 nM; in series [2] (SMC strain 5286, read-out: SMC Strain 5286, IC50), 13 nM; in series [2] (SMC strain 9557-1, read-out: SMC Strain 9557-1, IC50), 9 nM.

With `O=S(=O)(c1ccccc1)c1c(OCCOc2no[n+]([O-])c2S(=O)(=O)c2ccccc2)no[n+]1[O-]` [Example 5], the melting point was 187 to 189 °C.
